The results in this text go back to patent publication US20080267882A1, “Imaging compounds, methods of making imaging compounds, methods of imaging, therapeutic compounds, methods of making therapeutic compounds, and methods of therapy” (Stanford University, priority 2007, published 2008).

A short description of data set [1]: in vivo. The note with it: mouse, iv, total radioactivity. Here is the method: (§1) PET scans and image analysis were performed using a microPET R4 rodent model scanner (Siemens Medical Solutions) as previously reported (J Nucl Med 2006;47:113-121 and J Nucl Med 2005;46:1707-1718, each of which is incorporated herein by reference for the corresponding discussion). Each mouse was tail-vein injected with about 3.7 MBq (100 μCi) of ^18F-FPRGD2 under isoflurane anesthesia. The 30-min dynamic scan (1×30 s, 4×1 min, 1×1.5 min, 4×2 min, 1×2.5 min, 4×3 min, total of 15 frames) was started 1 min after injection. Five min static PET images were also acquired at 1 h and 2 h post-injection (p.i.). The images were reconstructed by a 2-dimensional ordered-subsets expectation maximum (OSEM) algorithm and no correction was applied for attenuation or scatter.
(§2) PET scans and image analysis were performed using a microPET R4 rodent model scanner (Siemens Medical Solutions) as previously reported. For U87MG tumor model, mice (n=3) were tail-vein injected with about 3.7 MBq (100 μCi) of ^18F-FPRGD4 under isoflurane anesthesia and then subjected to a 30-min dynamic scan (1×30 s, 4×1 min, 1×1.5 min, 4×2 min, 1×2.5 min, 4×3 min, total of 15 frames) starting from 1 min p.i. Five min static PET images were also acquired at 1, 2, and 3 h p.i. The images were reconstructed by 2-dimensional ordered-subsets expectation maximum (OSEM) algorithm. No attenuation or scatter correction was applied. […] The 5-min static PET scans was then acquired at 30 min and 1 h p.i. Multiple time point static scans were also obtained for orthotopic MDA-MB-435, c-neu oncomouse, and subcutaneous DU145 tumor models after tail-vein injected with 3.7 MBq of ^18F-FPRGD4.
(§3) For each microPET scan, regions of interest (ROIs) were drawn over the tumor, normal tissue, and major organs by using vendor software (ASI Pro 5.2.4.0) on decay-corrected whole-body coronal images. The maximum radioactivity concentration (accumulation) within a tumor or an organ was obtained from mean pixel values within the multiple ROI volume, which were converted to counts/mL/min by using a conversion factor. Assuming a tissue density of 1 g/mL, the ROIs were converted to counts/g/min and then divided by the administered activity to obtain an imaging ROI-derived % ID/g. […]
(§4) PET scans and image analysis were performed using a microPET R4 rodent model scanner (Siemens Medical Solutions) as previously reported (J Nucl Med. 2005;46:1707-1718 and J Nucl Med. 2006;47:113-121, each of which is incorporated herein by reference for the corresponding discussion). About 9.3 MBq of ^64Cu-DOTA-RGD multimer was intravenously injected into each mouse under isoflurane anesthesia. Five minute static scans were acquired at 30 min, 1 h, 2 h, 6 h, and 20 h p.i. The images were reconstructed by a 2-dimensional ordered-subsets expectation maximum (OSEM) algorithm and no correction was applied for attenuation and scatter. For each microPET scan, regions of interest (ROIs) were drawn over the tumor, normal tissue, and major organs on decay-corrected whole-body coronal images. The radioactivity concentration (accumulation) within a tumor was obtained from the maximum value within the multiple ROIs and then converted to % ID/g.
(§5) PET scans and image analysis were performed using a microPET R4 rodent model scanner (Siemens Medical Solutions) as previously reported (J Nucl Med. 2006;47:113-21 and J Nucl Med. 2005;46:1707-18, which is incorporated herein by reference for the corresponding discussion). […] The 60-min dynamic scan (5×1 min, 10×3 min, 5×5 min, total of 20 frames) was started 1 min after injection. A 2 h time point static scan was also acquired after the 60 min dynamic scan. Five min static PET images were also acquired separately at 30 min, 1 h and 2 h time points post-injection (p.i.) for another set of tumor-bearing mice (n=3/tracer). The images were reconstructed by a 2-dimensional ordered-subsets expectation maximum (OSEM) algorithm and no correction was necessary for attenuation or scatter correction. […]

Another data set deals with U87MG tumor-bearing mice. In words: in vivo. The note with it: mouse, iv, 3.7 MBq. Here is the method:
as §1, §2, §3, §4, §5

Data set [2] in a line: in vivo. The note with it: female, nude, mouse, total radioactivity. Here is the method:
All mice were sacrificed and dissected at 1 h after injection of the tracer. Blood, tumor, major organs and tissues were collected and wet weighed. The radioactivity in the tissue was measured using a γ-counter (Packard). The results were presented as percentage injected dose per gram of tissue (% ID/g).

A short description of data set [3]: in vivo. The note with it: c-neu oncomouse (MMTV/c-neu transgenic), mouse, iv, total radioactivity. The method, then:
All animal experiments were performed under a protocol approved by Stanford's Administrative Panel on Laboratory Animal Care. […] The c-neu oncomouse (Charles River Laboratories, Charles River, Canada) is a spontaneous tumor-bearing model that carries an activated c-neu oncogene driven by a mouse mammary tumor virus (MMTV) promoter (Cell 1988;54:105-115, which is incorporated herein by reference for the corresponding discussion). Transgenic mice uniformly expressing the MMTV/c-neu gene develop mammary adenocarcinomas between 4 and 8 months postpartum that involve the entire epithelium in each gland. […] Each mouse was tail-vein injected with about 3.7 MBq (100 μCi) of ^18[…]2 under isoflurane anesthesia. The 30-min dynamic scan (1×30 s, 4×1 min, 1×1.5 min, 4×2 min, 1×2.5 min, 4×3 min, total of 15 frames) was started 1 min after injection. Five min static PET images were also acquired at 1 h and 2 h post-injection (p.i.). The images were reconstructed by a 2-dimensional ordered-subsets expectation maximum (OSEM) algorithm and no correction was applied for attenuation or scatter. […] Animal procedures were performed according to a protocol approved by the Stanford University Institutional Animal Care and Use Committee. […] The c-neu oncomouse (Charles River Laboratories, Charles River, Canada) is a spontaneous tumor-bearing model that carries an activated c-neu oncogene driven by a mouse mammary tumor virus (MMTV) promoter (Cell. 1988;54:105-115, which is incorporated herein by reference for the corresponding discussion). Transgenic mice uniformly expressing the MMTV/c-neu gene develop mammary adenocarcinomas between 4 and 8 months postpartum that involve the entire epithelium in each gland. […] PET scans and image analysis were performed using a microPET R4 rodent model scanner (Siemens Medical Solutions) as previously reported. […] Five min static PET images were also acquired at 1, 2, and 3 h p.i. The images were reconstructed by 2-dimensional ordered-subsets expectation maximum (OSEM) algorithm. No attenuation or scatter correction was applied. […] The 5-min static PET scans was then acquired at 30 min and 1 h p.i. […] Animal procedures were performed according to a protocol approved by Stanford University Institutional Animal Care and Use Committee. […] Transgenic mice uniformly expressing the MMTV/c-neu gene develop mammary adenocarcinomas (4 to 8 months postpartum) that involve the entire epithelium in each gland. […] Five minute static scans were acquired at 30 min, 1 h, 2 h, 6 h, and 20 h p.i. […] The radioactivity concentration (accumulation) within a tumor was obtained from the maximum value within the multiple ROIs and then converted to % ID/g.

Data set [4] in a line: in vivo. The note with it: female, athymic nude, mouse, total radioactivity. The method, then: All mice were sacrificed and dissected at 20 h post-injection (p.i.) of the tracer. Blood, U87MG tumor, major organs and tissues were collected and wet weighed. The radioactivity in the tissue was measured using a γ-counter (Packard). The results were presented as percentage injected dose per gram of tissue (% ID/g).

Where [5] appears, read: athymic nude, 3.7 MBq, U87MG tumor uptake.
[6] abbreviates: nude, 3.7 MBq, U87MG tumor uptake.
Where [7] appears, read: female, athymic nude, 10 mg/kg, U87MG tumor uptake with blocking.
Where [8] appears, read: female, athymic nude, 9.3 MBq, U87MG tumor uptake.
Setting [9] is: female, athymic nude, U87MG tumor uptake.

SMILES strings stand for the structures.

A word on the tissue uptake: it is the share of the injected amount in each gram of the tissue.

As for `N=C(N)NCCC[C@@H]1NC(=O)[C@H](CCCCNC(=S)Nc2ccc(C[C@H]3CN(CC(=O)O)CCN(CC(=O)O)CCN3CC(=O)O)cc2)NC(=O)[C@@H](Cc2ccc(O)cc2)NC(=O)[C@H](CC(=O)O)NC(=O)CNC1=O` [^68Ga-NOTA-RGD1, metal not drawn], in “in vivo [1]” (setting [5]), the tissue uptake at 0.5 h worked out at 1.9 ± 0.2 %ID/g, the tissue uptake at 1 h came out at 1.4 ± 0.2 %ID/g and the tissue uptake at 2 h was 1.1 ± 0.1 %ID/g. Also, in the data set “in vivo [1]” (setting [6]), the tissue uptake at 0.25 h came out at 2.35 %ID/g, the tissue uptake at 0.5 h stood at 1.84 %ID/g, the tissue uptake at 1 h is 1.47 %ID/g and the tissue uptake at 2 h worked out at 1.12 %ID/g. The U87MG tumor uptake with U87MG tumor-bearing mice (5 min) is on record as 3.24 % ID/g.

With `N=C(N)NCCC[C@@H]1NC(=O)[C@H](CCCCNC(=O)CC[C@H](NC(=S)Nc2ccc(C[C@H]3CN(CC(=O)O)CCN(CC(=O)O)CCN3CC(=O)O)cc2)C(=O)NCCCC[C@@H]2NC(=O)[C@@H](Cc3ccc(O)cc3)NC(=O)[C@H](CC(=O)O)NC(=O)CNC(=O)[C@H](CCCNC(=N)N)NC2=O)NC(=O)[C@@H](Cc2ccc(O)cc2)NC(=O)[C@H](CC(=O)O)NC(=O)CNC1=O` [^68Ga-NOTA-RGD2, metal not drawn], the tissue uptake at 0.5 h in “in vivo [1]” (setting [5]) was found to be 2.6 ± 0.2 %ID/g; in the data set “in vivo [1]” (setting [6]), 2.79 %ID/g. Further, the tissue uptake at 1 h in the data set “in vivo [1]” (setting [5]) was determined as 2.8 ± 0.11 %ID/g; in the data set “in vivo [1]” (athymic nude, 3.7 MBq, kidney uptake), 2 %ID/g; in the data set “in vivo [1]” (setting [7]), 0.31 ± 0.02 %ID/g; in “in vivo [1]” (setting [6]), 2.34 %ID/g; in “in vivo [1]” (nude, 3.7 MBq, kidney uptake), 4.6 %ID/g; in “in vivo [2]” (10 mg/kg, tumor uptake with blocking), 0.21 ± 0.03 %ID/g. In addition, the tissue uptake at 1 h was 4.3 ± 0.25 %ID/g in the data set “in vivo [2]” (3.7 MBq, kidney uptake); 3.82 ± 0.7 %ID/g in “in vivo [2]” (3.7 MBq, tumor uptake); at most 1 %ID/g in the data set “in vivo [2]” (3.7 MBq, uptake values in the other major organs). Further, the tissue uptake at 2 h stood at 1.7 ± 0.1 %ID/g in “in vivo [1]” (setting [5]) and 1.89 %ID/g in the data set “in vivo [1]” (setting [6]). Further, the tissue uptake at 5 min in the data set “in vivo [1]” (setting [6]) turned out to be 4.39 %ID/g. In the data set “in vivo [1]” (setting [6]), the tissue uptake at 0.25 h was 3.46 %ID/g. Further, in the data set on U87MG tumor-bearing mice (athymic nude, 1 h), the U87MG tumor uptake is recorded as 2.2±0.1 % ID/g.

For the compound `N=C(N)NCCC[C@@H]1NC(=O)[C@H](CCCCNC(=O)CC[C@H](NC(=O)CC[C@H](NC(=O)CC[C@H](NC(=O)CN2CCN(CC(=O)O)CCN(CC(=O)O)CCN(CC(=O)O)CC2)C(=O)N[C@@H](CCC(=O)N[C@@H](CCC(=O)NCCCC[C@@H]2NC(=O)[C@@H](Cc3ccc(O)cc3)NC(=O)[C@H](CC(=O)O)NC(=O)CNC(=O)[C@H](CCCNC(=N)N)NC2=O)C(=O)NCCCC[C@@H]2NC(=O)[C@@H](Cc3ccc(O)cc3)NC(=O)[C@H](CC(=O)O)NC(=O)CNC(=O)[C@H](CCCNC(=N)N)NC2=O)C(=O)N[C@@H](CCC(=O)NCCCC[C@@H]2NC(=O)[C@@H](Cc3ccc(O)cc3)NC(=O)[C@H](CC(=O)O)NC(=O)CNC(=O)[C@H](CCCNC(=N)N)NC2=O)C(=O)NCCCC[C@@H]2NC(=O)[C@@H](Cc3ccc(O)cc3)NC(=O)[C@H](CC(=O)O)NC(=O)CNC(=O)[C@H](CCCNC(=N)N)NC2=O)C(=O)N[C@@H](CCC(=O)NCCCC[C@@H]2NC(=O)[C@@H](Cc3ccc(O)cc3)NC(=O)[C@H](CC(=O)O)NC(=O)CNC(=O)[C@H](CCCNC(=N)N)NC2=O)C(=O)NCCCC[C@@H]2NC(=O)[C@@H](Cc3ccc(O)cc3)NC(=O)[C@H](CC(=O)O)NC(=O)CNC(=O)[C@H](CCCNC(=N)N)NC2=O)C(=O)NCCCC[C@@H]2NC(=O)[C@@H](Cc3ccc(O)cc3)NC(=O)[C@H](CC(=O)O)NC(=O)CNC(=O)[C@H](CCCNC(=N)N)NC2=O)NC(=O)[C@@H](Cc2ccc(O)cc2)NC(=O)[C@H](CC(=O)O)NC(=O)CNC1=O` [^64Cu-DOTA-RGD octamer, metal not drawn], the tissue uptake at 2 h in “in vivo [1]” (setting [7]) came to 1.7 ± 0.2 %ID/g; in “in vivo [1]” (setting [9]) it was 10.6 ± 0.3 %ID/g. For the same compound, in the data set “in vivo [1]” (setting [8]), the tissue uptake at 6 h stood at 10.5 ± 0.7 %ID/g. In addition, the results for the tissue uptake at 20 h in the data set “in vivo [1]” (setting [8]), in the data set “in vivo [3]” (9.3 MBq) and in “in vivo [4]” were 10.3 ± 1 %ID/g, 6.6 ± 1.5 %ID/g and 27 ± 3.5 %ID/g, respectively. Also, the tissue uptake at 0.5 h in “in vivo [1]” (setting [9]) came out at 11.7 ± 0.7 %ID/g. Moreover, the tissue uptake at 1 h in the data set “in vivo [1]” (setting [9]) came out at 10.6 ± 0.7 %ID/g; in the data set “in vivo [3]”, 8.9 ± 2.1 %ID/g.
